Measured values published in patent publication US20230167088A1, “1-PYRAZINYLPYRAZOLYL-3-OXYALKYL ACIDS AND THEIR DERIVATIVES, AND THEIR USE FOR CONTROL OF UNDESIRED PLANT GROWTH” (BAYER AKTIENGESELLSCHAFT, priority 2020, published 2023).

Legend:
LOLRI [1] = experiment: Herbicidal post-emergence action 1a (greenhouse pots, visual rating); format: in vivo, Lolium rigidum; details: Dosage 320 g/ha; rated visually about 3 weeks after treatment; 100% = plants have died, 0% = like control plants
In short: (§1)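 Weeds and crops sown in sandy loam in greenhouse pots were sprayed post-emergence at the one-leaf stage (2–3 weeks after sowing) with WP or EC formulations plus 0.5% additive at 600 l/ha water, 320 and/or 80 g/ha. About 3 weeks later damage was rated visually against untreated controls (0% = no effect, 100% = dead).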

POLCO [2] = experiment: as above; format: in vivo, Polygonum convolvulus; details: visual rating about 3 weeks after treatment
In short: as §1

ECHCG = experiment: Herbicidal pre-emergence action 2b (doubly sown, 1280 g/ha); format: in vivo, Echinochloa crus-galli; details: doubly sown pots, dosage 1280 g/ha, visual scoring after about 3 weeks
In short: (§2)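 Seeds are placed in sandy loam and covered, then the formulated compound is applied to the covering soil in water equivalent to 600 litres per hectare with 0.5% additive. Pots stay in the greenhouse under good growth conditions. Activity is rated visually as a percentage of untreated controls after about three weeks.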

LOLRI [3] = experiment: Herbicidal pre-emergence action 2a (greenhouse pots, visual scoring); format: in vivo, Lolium rigidum; details: dosage 320 g/ha, visual scoring after about 3 weeks vs untreated controls
In short: (§3)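 Dose levels were 320 g/ha and/or 80 g/ha, delivered as an aqueous spray of wettable powder or emulsion concentrate plus 0.5% additive onto soil over sown seeds. Plants grew under good greenhouse conditions for about 3 weeks before visual percentage rating versus untreated pots.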

AMARE [4] = experiment: Herbicidal pre-emergence action 2b (doubly sown, 1280 g/ha); format: in vivo, Amaranthus retroflexus; details: doubly sown pots, dosage 1280 g/ha, visual scoring after about 3 weeks
In short: as §2

POAAN [5] = experiment: as above; format: in vivo, Poa annua; details: doubly sown pots, dosage 1280 g/ha, visual scoring after about 3 weeks
In short: as §2

MATIN [6] = experiment: Herbicidal post-emergence action 1b (twin sowing, 1280 g/ha); format: in vivo, Matricaria inodora; details: dosage 1280 g/ha, visual rating about 3 weeks after treatment
In short: (§4)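 Post-emergence foliar spray on one-leaf weeds grown two species per pot in sandy loam; ~3 weeks later, visual rating from 0% (as control) to 100% (plants died).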

POLCO [7] = experiment: Herbicidal pre-emergence action 2a (greenhouse pots, visual scoring); format: in vivo, Polygonum convolvulus; details: dosage 320 g/ha, visual scoring after about 3 weeks vs untreated controls
In short: as §3

STEME [8] = experiment: Herbicidal post-emergence action 1b (twin sowing, 1280 g/ha); format: in vivo, Stellaria media; details: dosage 1280 g/ha, visual rating about 3 weeks after treatment
In short: as §4

MATIN [9] = experiment: Herbicidal pre-emergence action 2a (greenhouse pots, visual scoring); format: in vivo, Matricaria inodora; details: dosage 320 g/ha, visual scoring after about 3 weeks vs untreated controls
In short: as §3

MATIN [10] = experiment: Herbicidal pre-emergence action 2b (doubly sown, 1280 g/ha); format: in vivo, Matricaria inodora; details: doubly sown pots, dosage 1280 g/ha, visual scoring after about 3 weeks
In short: as §2

MATIN [11] = experiment: Herbicidal post-emergence action 1a (greenhouse pots, visual rating); format: in vivo, Matricaria inodora; details: visual rating about 3 weeks after treatment
In short: as §1

AMARE [12] = experiment: Herbicidal pre-emergence action 2a (greenhouse pots, visual scoring); format: in vivo, Amaranthus retroflexus; details: dosage 320 g/ha, visual scoring after about 3 weeks vs untreated controls
In short: as §3

STEME [13] = experiment: Herbicidal pre-emergence action 2b (doubly sown, 1280 g/ha); format: in vivo, Stellaria media; details: doubly sown pots, dosage 1280 g/ha, visual scoring after about 3 weeks
In short: as §2

DIGSA = experiment: Herbicidal pre-emergence action 2a (greenhouse pots, visual scoring); format: in vivo, Digitaria sanguinalis; details: dosage 320 g/ha, visual scoring after about 3 weeks
In short: as §3

PHBPU = experiment: Herbicidal post-emergence action 1a (greenhouse pots, visual rating); format: in vivo, Pharbitis purpurea; details: visual rating about 3 weeks after treatment
In short: as §1

STEME [14] = experiment: Herbicidal pre-emergence action 2a (greenhouse pots, visual scoring); format: in vivo, Stellaria media; details: dosage 320 g/ha, visual scoring after about 3 weeks vs untreated controls
From the text: [table] a) Seeds of monocotyledonous and dicotyledonous weed plants and crop plants are placed in plastic or organic plant pots and covered with soil. The compounds of the invention, formulated in the form of wettable powders (WP) or as emulsion concentrates (EC), are then applied onto the surface of the covering soil as aqueous suspension or emulsion with addition of 0.5% additive at a water application rate of 600 1/ha (converted). After the treatment, the pots are placed in a greenhouse and kept under good growth conditions for the trial plants. After about 3 weeks, the effect of the preparations is scored visually in comparison with untreated controls as percentages. For example, 100% activity=the plants have died, 0% activity=like control plants. Tables B1 to B15 below show the effects of selected compounds of the general formula (I) according to Tables 1 and 2 on various harmful plants and an application rate corresponding to 320 g/ha and/or 80 g/ha, which were obtained by the experimental procedure mentioned above.

STEME [15] = experiment: Herbicidal post-emergence action 1a (greenhouse pots, visual rating); format: in vivo, Stellaria media; details: Dosage 320 g/ha; rated visually about 3 weeks after treatment; 100% = plants have died, 0% = like control plants
Description: [table] a) Seeds of monocotyledonous and dicotyledonous weeds and crop plants are placed in sandy loam in plastic or organic plant pots, covered with soil and cultivated in a greenhouse under controlled growth conditions. 2 to 3 weeks after sowing, the test plants are treated at the one-leaf stage. The compounds of the invention, formulated in the form of wettable powders (WP) or as emulsion concentrates (EC), are then sprayed onto the green parts of the plants as aqueous suspension or emulsion with addition of 0.5% additive at a water application rate of 600 1/ha (converted). After the test plants have been kept in the greenhouse under optimum growth conditions for about 3 weeks, the activity of the preparations is rated visually in comparison to untreated controls. For example, 100% activity=the plants have died, 0% activity=like control plants. Tables A1 to A15 below show the effects of selected compounds of the general formula (I) according to Tables 1 and 2 on various harmful plants and an application rate corresponding to 320 g/ha and/or 80 g/ha, which were obtained by the experimental procedure mentioned above.

VIOTR = experiment: as above; format: in vivo, Viola tricolor; details: dosage 320 g/ha, visual rating about 3 weeks after treatment
In short: as §1

VERPE [16] = experiment: Herbicidal pre-emergence action 2a (greenhouse pots, visual scoring); format: in vivo, Veronica persica; details: dosage 320 g/ha, visual scoring after about 3 weeks vs untreated controls
In short: as §3

ALOMY [17] = experiment: as above; format: in vivo, Alopecurus myosuroides; details: dosage 320 g/ha, visual scoring after about 3 weeks
In short: as §3

ALOMY [18] = experiment: Herbicidal post-emergence action 1a (greenhouse pots, visual rating); format: in vivo, Alopecurus myosuroides; details: Dosage 320 g/ha; rated visually about 3 weeks after treatment; 100% = plants have died, 0% = like control plants
In short: as §1

AMARE [19] = experiment: as above; format: in vivo, Amaranthus retroflexus; details: visual rating about 3 weeks after treatment
In short: as §1

POAAN [20] = experiment: Herbicidal post-emergence action 1b (twin sowing, 1280 g/ha); format: in vivo, Poa annua; details: dosage 1280 g/ha, visual rating about 3 weeks after treatment
In short: as §4

VERPE [21] = experiment: Herbicidal post-emergence action 1a (greenhouse pots, visual rating); format: in vivo, Veronica persica; details: dosage 320 g/ha, visual rating about 3 weeks after treatment
In short: as §1

How did the “Post-emergence action against LOLRI in %” value (LOLRI [1]) turn out when `O=C(O)COc1nn(-c2cnccn2)c(-c2cccc(F)c2)c1Br` [Example I-04] was run?
The value was 80%.

What about the “Post-emergence action against POLCO in %” value (POLCO [2]; dosage 80 g/ha) of the same compound?
Its value is 80%.

What about the “Post-emergence action against POLCO in %” value (POLCO [2]; dosage 320 g/ha) of the same compound?
The value was 90%.

What about the “Pre-emergence action at 1280 g/ha against ECHCG in %” value (ECHCG) of the same compound?
Its value is 100%.

And the “Pre-emergence action against LOLRI in %” value (LOLRI [3])?
The value was 90%.

And the “Pre-emergence action at 1280 g/ha against AMARE in %” value (AMARE [4])?
Its value is 100%.

And the “Pre-emergence action at 1280 g/ha against POAAN in %” value (POAAN [5])?
Its value is 100%.

What about the “Post-emergence action at 1280 g/ha against MATIN in %” value (MATIN [6]) of the same compound?
The value was 90%.

What about the “Pre-emergence action against POLCO in %” value (POLCO [7]) of the same compound?
The value was 90%.

And the “Post-emergence action at 1280 g/ha against STEME in %” value (STEME [8])?
Its value is 100%.

What about the “Pre-emergence action against MATIN in %” value (MATIN [9]) of the same compound?
Its value is 90%.

What about the “Pre-emergence action at 1280 g/ha against MATIN in %” value (MATIN [10]) of the same compound?
Its value is 100%.

What about the “Post-emergence action against MATIN in %” value (MATIN [11]; dosage 80 g/ha) of the same compound?
The value was 80%.

What about the “Post-emergence action against MATIN in %” value (MATIN [11]; dosage 320 g/ha) of the same compound?
The value was 90%.

What about the “Pre-emergence action against AMARE in %” value (AMARE [12]) of the same compound?
Its value is 100%.

What about the “Pre-emergence action at 1280 g/ha against STEME in %” value (STEME [13]) of the same compound?
The value was 100%.

And the “Pre-emergence action against DIGSA in %” value (DIGSA)?
Its value is 90%.

And the “Post-emergence action against PHBPU in %” value (PHBPU; dosage 80 g/ha)?
The value was 80%.

What about the “Post-emergence action against PHBPU in %” value (PHBPU; dosage 320 g/ha) of the same compound?
Its value is 80%.

And the “Pre-emergence action against STEME in %” value (STEME [14])?
Its value is 90%.

And the “Post-emergence action against STEME in %” value (STEME [15])?
The value was 80%.

And the “Post-emergence action against VIOTR in %” value (VIOTR)?
Its value is 80%.

What about the “Pre-emergence action against VERPE in %” value (VERPE [16]) of the same compound?
Its value is 90%.

What about the “Pre-emergence action against ALOMY in %” value (ALOMY [17]) of the same compound?
The value was 80%.

What about the “Post-emergence action against ALOMY in %” value (ALOMY [18]) of the same compound?
The value was 90%.

What about the “Post-emergence action against AMARE in %” value (AMARE [19]; dosage 80 g/ha) of the same compound?
Its value is 90%.

What about the “Post-emergence action against AMARE in %” value (AMARE [19]; dosage 320 g/ha) of the same compound?
Its value is 90%.

And the “Post-emergence action at 1280 g/ha against POAAN in %” value (POAAN [20])?
The value was 90%.

And the “Post-emergence action against VERPE in %” value (VERPE [21])?
Its value is 80%.
